In patent US8088815B2, “Spiroindolinone pyrrolidines” (Hoffman-La Roche Inc., priority 2009, dated 2012):

These molecules were tested against interaction between p53 and MDM2 proteins (Homo sapiens, UniProt Q00987) (assay: HTRF assay of inhibition of the p53-MDM2 interaction (GST-MDM2 / biotinylated p53 peptide)). Settings: recombinant GST-tagged MDM2 and biotinylated p53 peptide, bsa:0.02%.
Assay type: binding

interaction between p53 and MDM2 proteins, sequence (Q00987 whole entry): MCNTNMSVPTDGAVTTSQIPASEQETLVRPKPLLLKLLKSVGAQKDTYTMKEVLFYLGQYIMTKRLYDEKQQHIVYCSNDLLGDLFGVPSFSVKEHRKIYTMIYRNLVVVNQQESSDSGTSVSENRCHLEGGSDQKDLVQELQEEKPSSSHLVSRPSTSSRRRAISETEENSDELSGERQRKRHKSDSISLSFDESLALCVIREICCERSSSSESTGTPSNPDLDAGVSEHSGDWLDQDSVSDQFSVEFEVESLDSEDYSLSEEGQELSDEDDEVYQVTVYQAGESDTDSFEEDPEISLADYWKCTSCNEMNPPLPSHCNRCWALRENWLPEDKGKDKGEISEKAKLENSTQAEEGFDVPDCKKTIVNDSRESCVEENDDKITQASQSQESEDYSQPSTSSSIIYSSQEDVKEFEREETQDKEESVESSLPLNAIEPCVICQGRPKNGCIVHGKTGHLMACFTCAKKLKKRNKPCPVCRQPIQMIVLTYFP

Row | IC50 [nM] | Molecule
1 | 11 | CC(C)(C)C[C@@H]1N[C@@H](C(=O)Nc2ccccc2)[C@H](c2cccc(Cl)c2F)[C@]12C(=O)Nc1cc(Cl)ccc12 [Example 147, chiral (2′S,3′R,4′S,5′R)-6-chloro-4′-(3-chloro-2-fluoro-phenyl)-2′-(2,2-dimethyl-propyl)-2-oxo-1,2-dihydro-spiro[indole-3,3′-pyrrolidine]-5′-carboxylic acid phenylamide]
2 | 5 | COc1cc(C(N)=O)ccc1NC(=O)[C@@H]1N[C@@H](CC(C)(C)C)[C@@]2(C(=O)Nc3cc(Cl)ccc32)[C@H]1c1cc(F)cc(Cl)c1 [Example 148, chiral (2′S,3′R,4′R,5′R)-6-chloro-4′-(3-chloro-5-fluoro-phenyl)-2′-(2,2-dimethyl-propyl)-2-oxo-1,2-dihydro-spiro[indole-3,3′-pyrrolidine]-5′-carboxylic acid (4-carbamoyl-2-methoxy-phenyl)-amide]
3 | 4 | COc1cc(S(=O)(=O)N2CCOCC2)ccc1NC(=O)[C@@H]1N[C@@H](CC(C)(C)C)[C@@]2(C(=O)Nc3cc(Cl)ccc32)[C@H]1c1cccc(Cl)c1F [Example 154, chiral (2′S,3′R,4′S,5′R)-6-chloro-4′-(3-chloro-2-fluoro-phenyl)-2′-(2,2-dimethyl-propyl)-2-oxo-1,2-dihydro-spiro[indole-3,3′-pyrrolidine]-5′-carboxylic acid [2-methoxy-4-(morpholine-4-sulfonyl)-phenyl]-amide]
4 | 10 | COc1cc(OC2CCOCC2)ccc1NC(=O)[C@@H]1N[C@@H](CC(C)(C)C)[C@@]2(C(=O)Nc3cc(Cl)ccc32)[C@H]1c1cccc(Cl)c1F [Example 157, chiral (2′S,3′R,4′S,5′R)-6-chloro-4′-(3-chloro-2-fluoro-phenyl)-2′-(2,2-dimethyl-propyl)-2-oxo-1,2-dihydro-spiro[indole-3,3′-pyrrolidine]-5′-carboxylic acid [2-methoxy-4-(tetrahydro-pyran-4-yloxy)-phenyl]-amide]
5 | 14 | COc1cc(CC(=O)OC(C)(C)C)ccc1NC(=O)[C@@H]1N[C@@H](CC(C)(C)C)[C@@]2(C(=O)Nc3cc(Cl)ccc32)[C@H]1c1cccc(Cl)c1F [Example 159, chiral (4-{[(2′S,3′R,4′S,5′R)-6-chloro-4′-(3-chloro-2-fluoro-phenyl)-2′-(2,2-dimethyl-propyl)-2-oxo-1,2-dihydro-spiro[indole-3,3′-pyrrolidine]-5′-carbonyl]amino}-3-methoxy-phenyl)-acetic acid tert-butyl ester]
6 | 5 | COc1cc(CC(=O)O)ccc1NC(=O)[C@@H]1N[C@@H](CC(C)(C)C)[C@@]2(C(=O)Nc3cc(Cl)ccc32)[C@H]1c1cccc(Cl)c1F [Example 160, chiral (4-{[(2′S,3′R,4′S,5′R)-6-chloro-4′-(3-chloro-2-fluoro-phenyl)-2′-(2,2-dimethyl-propyl)-2-oxo-1,2-dihydro-spiro[indole-3,3′-pyrrolidine]-5′-carbonyl]-amino}-3-methoxy-phenyl)-acetic acid]
7 | 4 | COc1cc(CC(N)=O)ccc1NC(=O)[C@@H]1N[C@@H](CC(C)(C)C)[C@@]2(C(=O)Nc3cc(Cl)ccc32)[C@H]1c1cccc(Cl)c1F [Example 161, chiral (2′S,3′R,4′S,5′R)-6-chloro-4′-(3-chloro-2-fluoro-phenyl)-2′-(2,2-dimethyl-propyl)-2-oxo-1,2-dihydro-spiro[indole-3,3′-pyrrolidine]-5′-carboxylic acid (4-carbamoylmethyl-2-methoxy-phenyl)-amide]
8 | 11 | COc1cc(OCCSC)ccc1NC(=O)[C@@H]1N[C@@H](CC(C)(C)C)[C@@]2(C(=O)Nc3cc(Cl)ccc32)[C@H]1c1cccc(Cl)c1F [Example 169, chiral (2′S,3′R,4′S,5′R)-6-chloro-4′-(3-chloro-2-fluoro-phenyl)-2′-(2,2-dimethyl-propyl)-2-oxo-1,2-dihydro-spiro[indole-3,3′-pyrrolidine]-5′-carboxylic acid [2-methoxy-4-(2-methylsulfanyl-ethoxy)-phenyl]-amide]
9 | 7 | COc1cc(OCCS(C)(=O)=O)ccc1NC(=O)[C@@H]1N[C@@H](CC(C)(C)C)[C@@]2(C(=O)Nc3cc(Cl)ccc32)[C@H]1c1cccc(Cl)c1F [Example 170, chiral (2′S,3′R,4′S,5′R)-6-chloro-4′-(3-chloro-2-fluoro-phenyl)-2′-(2,2-dimethyl-propyl)-2-oxo-1,2-dihydro-spiro[indole-3,3′-pyrrolidine]-5′-carboxylic acid [4-(2-methanesulfonyl-ethoxy)-2-methoxy-phenyl]-amide]
10 | 6 | COc1cc(OCCCS(C)(=O)=O)ccc1NC(=O)[C@@H]1N[C@@H](CC(C)(C)C)[C@@]2(C(=O)Nc3cc(Cl)ccc32)[C@H]1c1cccc(Cl)c1F [Example 181, chiral (2′S,3′R,4′S,5′R)-6-chloro-4′-(3-chloro-2-fluoro-phenyl)-2′-(2,2-dimethyl-propyl)-2-oxo-1,2-dihydro-spiro[indole-3,3′-pyrrolidine]-5′-carboxylic acid [4-(3-methanesulfonyl-propoxy)-2-methoxy-phenyl]-amide]
11 | 5 | COc1cc(C(=O)O)c(F)cc1NC(=O)[C@@H]1N[C@@H](CC(C)(C)C)[C@@]2(C(=O)Nc3cc(Cl)ccc32)[C@H]1c1cccc(Cl)c1F [Example 221, chiral 4-{[(2′S,3′R,4′S,5′R)-6-chloro-4′-(3-chloro-2-fluoro-phenyl)-2′-(2,2-dimethyl-propyl)-2-oxo-1,2-dihydro-spiro[indole-3,3′-pyrrolidine]-5′-carbonyl]amino}-2-fluoro-5-methoxy-benzoic acid]
12 | 5 | CC(C)(C)C[C@@H]1N[C@@H](C(=O)Nc2ccc(CCC(=O)O)cc2)[C@H](c2cccc(Cl)c2F)[C@]12C(=O)Nc1cc(Cl)ccc12 [Example 222, chiral 3-(4-{[(2′S,3′R,4′S,5′R)-6-chloro-4′-(3-chloro-2-fluoro-phenyl)-2′-(2,2-dimethyl-propyl)-2-oxo-1,2-dihydro-spiro[indole-3,3′-pyrrolidine]-5′-carbonyl]-amino}-phenyl)-propionic acid]
13 | 7 | COc1cc(C(=O)NC#N)ccc1NC(=O)[C@@H]1N[C@@H](CC(C)(C)C)[C@@]2(C(=O)Nc3cc(Cl)ccc32)[C@H]1c1cccc(Cl)c1F [Example 223, chiral (2′S,3′R,4′S,5′R)-6-chloro-4′-(3-chloro-2-fluorophenyl)-N-(4-(cyanocarbamoyl)-2-methoxyphenyl)-2′-(2,2-dimethyl-propyl)-2-oxospiro[indoline-3,3′-pyrrolidine]-5′-carboxamide]

Row | Molecule | IC50 [nM]
14 | rac-4-{[(2′S,3′R,4′R,5′R)-6-chloro-4′-(3-chloro-4-fluoro-phenyl)-2′-(2,2-dimethyl-propyl)-2-oxo-1,2-dihydro-spiro[indole-3,3′-pyrrolidine]-5′-carbonyl]-amino}-3-methoxy-benzoic acid [Example 127] | 12
